Data on 17 compounds can be found in patent publication US20200190081A1, “META SUBSTITUTED PHENYLPYRAZOLO- AND PHENYLPYRROLO- PYRIDAZINE DERIVATIVES HAVING MULTIMODAL ACTIVITY AGAINST PAIN” (ESTEVE PHARMACEUTICALS, S.A., priority 2016, published 2020).

Experiment [1] has as its target Human norepinephrine transporter (NET) (Homo sapiens, UniProt P23975). Put plainly: Binding assay to human norepinephrine transporter (NET), [3H]-Nisoxetin. The settings on record: human NET enriched membranes, 5 nM [3H]-Nisoxetin. The procedure: Binding Assay to Human Norepinephrine Transporter (NET).
Human norepinephrine transporter (NET) enriched membranes (5 μg) were incubated with 5 nM of radiolabeled [3H]-Nisoxetin in assay buffer containing 50 mM Tris-HCl, 120 mM NaCl, 5 mM KCl, pH 7.4. NSB (non specific binding) was measured by adding 10 μM of desipramine. The binding of the test compound was measured at five different concentrations. After 60 min incubation at 4° C., binding reaction was terminated by filtering through Multiscreen GF/C (Millipore) presoaked in 0.5% polyethyleneimine in Vacuum Manifold Station, followed by 3 washes with ice-cold filtration buffer containing 50 mM Tris-HCl, 0.9% NaCl, pH 7.4. Filter plates were dried at 60° C. for 1 hour and 30 μl of scintillation cocktail were added to each well before radioactivity reading. Readings were performed in a Trilux 1450 Microbeta radioactive counter (Perkin Elmer).

In experiment [2] the target is Human α2δ-1 Subunit of Cav2.2 Calcium Channel (Homo sapiens, UniProt P54289). Put plainly: Human α2δ-1 subunit of Cav2.2 calcium channel assay, [3H]-Gabapentin binding. The settings on record: human α2δ-1 enriched membranes, 15 nM [3H]-Gabapentin. How it is done:
Human α2δ-1 Subunit of Cav2.2 Calcium Channel Assay
Human α2δ-1 enriched membranes (2.5 μg) were incubated with 15 nM of radiolabeled [3H]-Gabapentin in assay buffer containing Hepes-KOH 10 mM, pH 7.4. NSB (non specific binding) was measured by adding 10 μM pregabalin. The binding of the test compound was measured at five different concentrations. After 60 min incubation at 27° C., binding reaction was terminated by filtering through Multiscreen GF/C (Millipore) presoaked in 0.5% polyethyleneimine in Vacuum Manifold Station, followed by 3 washes with ice-cold filtration buffer containing 50 mM Tris-HCl, pH 7.4. Filter plates were dried at 60° C. for 1 hour and 30 μl of scintillation cocktail were added to each well before radioactivity reading. Readings were performed in a Trilux 1450 Microbeta radioactive counter (Perkin Elmer).

pKi: −log10 of the molar value.

Usually pKi stands for the negative decadic logarithm of the Ki, by convention in mol/L.

Human α2δ-1 Subunit of Cav2.2 Calcium Channel, sequence (P54289 25-1103): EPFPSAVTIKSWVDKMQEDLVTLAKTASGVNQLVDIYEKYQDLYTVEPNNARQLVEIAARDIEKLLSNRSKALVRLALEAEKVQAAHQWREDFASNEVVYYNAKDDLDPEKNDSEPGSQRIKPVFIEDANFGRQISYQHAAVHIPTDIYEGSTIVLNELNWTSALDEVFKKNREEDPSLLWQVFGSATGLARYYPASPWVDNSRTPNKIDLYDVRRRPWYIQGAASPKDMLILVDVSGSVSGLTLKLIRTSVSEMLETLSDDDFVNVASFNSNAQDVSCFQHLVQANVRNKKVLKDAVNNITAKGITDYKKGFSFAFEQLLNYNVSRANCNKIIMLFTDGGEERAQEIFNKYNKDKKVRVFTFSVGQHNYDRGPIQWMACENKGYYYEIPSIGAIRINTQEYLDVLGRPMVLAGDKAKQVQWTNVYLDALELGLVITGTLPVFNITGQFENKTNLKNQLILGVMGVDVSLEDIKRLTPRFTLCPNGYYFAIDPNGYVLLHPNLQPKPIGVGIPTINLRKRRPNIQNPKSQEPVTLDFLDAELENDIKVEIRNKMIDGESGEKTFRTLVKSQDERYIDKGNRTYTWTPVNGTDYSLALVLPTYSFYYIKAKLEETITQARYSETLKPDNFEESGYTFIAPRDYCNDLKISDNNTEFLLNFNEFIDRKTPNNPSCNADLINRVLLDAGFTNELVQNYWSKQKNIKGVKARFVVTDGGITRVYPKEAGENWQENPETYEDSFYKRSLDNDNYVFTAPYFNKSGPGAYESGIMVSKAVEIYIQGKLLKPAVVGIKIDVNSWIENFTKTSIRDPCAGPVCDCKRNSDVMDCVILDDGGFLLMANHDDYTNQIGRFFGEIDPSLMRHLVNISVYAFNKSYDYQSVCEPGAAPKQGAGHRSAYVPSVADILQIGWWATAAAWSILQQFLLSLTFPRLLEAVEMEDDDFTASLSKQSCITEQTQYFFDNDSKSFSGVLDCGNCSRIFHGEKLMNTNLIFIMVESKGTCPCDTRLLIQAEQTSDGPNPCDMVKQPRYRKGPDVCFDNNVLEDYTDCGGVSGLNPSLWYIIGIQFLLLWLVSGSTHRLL
Human norepinephrine transporter (NET), sequence (P23975 whole entry): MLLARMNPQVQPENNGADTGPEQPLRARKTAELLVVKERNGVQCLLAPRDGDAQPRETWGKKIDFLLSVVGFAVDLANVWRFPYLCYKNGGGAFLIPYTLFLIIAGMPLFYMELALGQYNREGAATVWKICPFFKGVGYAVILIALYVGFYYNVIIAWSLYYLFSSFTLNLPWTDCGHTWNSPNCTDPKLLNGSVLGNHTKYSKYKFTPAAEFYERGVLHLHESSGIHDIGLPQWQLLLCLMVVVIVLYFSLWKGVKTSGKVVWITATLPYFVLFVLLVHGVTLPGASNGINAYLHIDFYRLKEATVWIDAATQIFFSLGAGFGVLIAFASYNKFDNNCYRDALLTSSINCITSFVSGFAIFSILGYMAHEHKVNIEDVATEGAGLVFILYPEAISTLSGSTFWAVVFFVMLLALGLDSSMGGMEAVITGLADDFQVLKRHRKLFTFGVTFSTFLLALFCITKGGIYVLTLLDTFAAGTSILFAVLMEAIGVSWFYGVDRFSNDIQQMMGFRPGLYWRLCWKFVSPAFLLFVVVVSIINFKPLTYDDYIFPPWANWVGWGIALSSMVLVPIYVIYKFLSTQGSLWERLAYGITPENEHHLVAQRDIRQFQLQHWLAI

Take `CNC[C@@H](Oc1cccc(-n2nc3c(N(C)C)nnc(C)c3c2C)c1)c1ccccc1` [Example 61, (S)-N,N,3,4-tetramethyl-2-(3-(2-(methylamino)-1-phenylethoxy)phenyl)-2H-pyrazolo[3,4-d]pyridazin-7-amine]: the values for the pKi in experiment [1] and in experiment [2] were over 7.00 and 5.30 to 6.30, respectively.
On to `CNCCC(Oc1cccc(-n2nc3c(N(C)CCO)nnc(C)c3c2C)c1)c1ccccc1F` (stereo not shown) [Example 31, 2-((2-(3-(1-(2-fluorophenyl)-3-(methylamino)propoxy)phenyl)-3,4-dimethyl-2H-pyrazolo[3,4-d]pyridazin-7-yl)(methyl)amino)ethanol], for which the pKi in experiment [1] was over 7.00; in experiment [2], 5.30 to 6.30.
With `CNC(COc1cccc(-n2nc3c(N(C)C)nnc(C)c3c2C)c1)c1ccccc1` (stereo not shown) [Example 15, N,N,3,4-tetramethyl-2-(3-(2-(methylamino)-2-phenylethoxy)phenyl)-2H-pyrazolo[3,4-d]pyridazin-7-amine], the pKi in experiment [1] is over 7.00; in experiment [2], 5.30 to 6.30.
On to `CNCCC(Oc1cccc(-n2nc3c(N(C)C)nnc(C)c3c2C)c1)c1cccc(C(N)=O)c1` (stereo not shown) [Example 56, 3-(1-(3-(7-(Dimethylamino)-3,4-dimethyl-2H-pyrazolo[3,4-d]pyridazin-2-yl)phenoxy)-3-(methylamino)propyl)benzamide], for which the pKi in experiment [1] was 6.30 to 7.00; in experiment [2] it was 5.30 to 6.30.
As to `CNCCC(Oc1cccc(-n2nc3c(N(C)C)nnc(C)c3c2C)c1)c1ccccc1` (stereo not shown) [Example 1, N,N,3,4-Tetramethyl-2-(3-(3-(methylamino)-1-phenylpropoxy)phenyl)-2H-pyrazolo[3,4-d]pyridazin-7-amine], the pKi in experiment [1] is over 7.00; in experiment [2] it was 5.30 to 6.30.
On to `CNCCC(Oc1cccc(-n2nc3c(N(C)C)nnc(C)c3c2C)c1)c1nccs1` (stereo not shown) [Example 34, N,N,3,4-Tetramethyl-2-(3-(3-(methylamino)-1-(thiazol-2-yl)propoxy)phenyl)-2H-pyrazolo[3,4-d]pyridazin-7-amine], for which the pKi is at most 6.00 in experiment [1] and over 6.30 in experiment [2].
Take `Cc1nnc(N(C)C)c2nn(-c3cccc(OC(CN(C)C)c4cccnc4)c3)c(C)c12` (stereo not shown) [Example 52, 2-(3-(2-(Dimethylamino)-1-(pyridin-3-yl)ethoxy)phenyl)-N,N,3,4-tetramethyl-2H-pyrazolo[3,4-d]pyridazin-7-amine]: the negative-log Ki (pKi) in experiment [1] is at most 6.00; in experiment [2], 5.30 to 6.30.
For the compound `CNCC(Oc1cccc(-n2nc3c(N(C)C)nnc(C)c3c2C)c1)c1cccs1` (stereo not shown) [Example 40, N,N,3,4-tetramethyl-2-(3-(2-(methylamino)-1-(thiophen-2-yl)ethoxy)phenyl)-2H-pyrazolo[3,4-d]pyridazin-7-amine], the values for the pKi in experiment [1] and in experiment [2] were 6.00 to 6.30 and 5.30 to 6.30, respectively.
For `CNCCC(Oc1cccc(-n2nc3c(N(C)C)nnc(C)c3c2C)c1)c1cccs1` (stereo not shown) [Example 51, N,N,3,4-Tetramethyl-2-(3-(3-(methylamino)-1-(thiophen-2-yl)propoxy)phenyl)-2H-pyrazolo[3,4-d]pyridazin-7-amine], the figures for the negative-log Ki (pKi) in experiment [1] and in experiment [2] were over 7.00 and 5.30 to 6.30, respectively.
On the same counts, the results for `Cc1nnc(N(C)C)c2nn(-c3cccc(OC(CN(C)C)c4ccccc4)c3)c(C)c12` (stereo not shown) [Example 37, 2-(3-(2-(dimethylamino)-1-phenylethoxy)phenyl)-N,N,3,4-tetramethyl-2H-pyrazolo[3,4-d]pyridazin-7-amine] are 6.30 to 7.00 and 5.30 to 6.30.
The matching figures for `CNCCC(Oc1cccc(-n2nc3c(N(C)C)nnc(C)c3c2C)c1)c1cc(F)cc(F)c1` (stereo not shown) [Example 18, 2-(3-(1-(3,5-difluorophenyl)-3-(methylamino)propoxy)phenyl)-N,N,3,4-tetramethyl-2H-pyrazolo[3,4-d]pyridazin-7-amine]: 6.30 to 7.00 and 5.30 to 6.30.
As to `CNCCC(Oc1cccc(-n2nc3c(N(C)C)nnc(C)c3c2C)c1)c1ccc(C(N)=O)cc1` (stereo not shown) [Example 57, 4-(1-(3-(7-(dimethylamino)-3,4-dimethyl-2H-pyrazolo[3,4-d]pyridazin-2-yl)phenoxy)-3-(methylamino)propyl)benzamide], the pKi in experiment [1] was 6.30 to 7.00; in experiment [2] it was 5.30 to 6.30.
Take `CNC1(CC(Oc2cccc(-n3nc4c(N(C)C)nnc(C)c4c3C)c2)c2ccccc2)CC1` (stereo not shown) [Example 49, N,N,3,4-tetramethyl-2-(3-(2-(1-(methylamino)cyclopropyl)-1-phenylethoxy)phenyl)-2H-pyrazolo[3,4-d]pyridazin-7-amine]: the pKi in experiment [1] is over 7.00; in experiment [2] it was 5.30 to 6.30.
On to `CNCC(Oc1cccc(-n2nc3c(N(C)C)nnc(C)c3c2C)c1)c1cccnc1` (stereo not shown) [Example 45, N,N,3,4-tetramethyl-2-(3-(2-(methylamino)-1-(pyridin-3-yl)ethoxy)phenyl)-2H-pyrazolo[3,4-d]pyridazin-7-amine], for which the pKi in experiment [1] was at most 6.00; in experiment [2], 5.30 to 6.30.
Take `CNCCC(Oc1cccc(-n2nc3c(N(C)C)nnc(C)c3c2C)c1)c1cccc(OC)c1` (stereo not shown) [Example 39, 2-(3-(1-(3-methoxyphenyl)-3-(methylamino)propoxy)phenyl)-N,N,3,4-tetramethyl-2H-pyrazolo[3,4-d]pyridazin-7-amine]: the negative-log Ki (pKi) in experiment [1] is over 7.00; in experiment [2], 5.30 to 6.30.
Take `CNc1nnc(C)c2c(C)n(-c3cccc(OC(CCN)c4ccccc4)c3)nc12` (stereo not shown) [Example 24, 2-(3-(3-amino-1-phenylpropoxy)phenyl)-N,3,4-trimethyl-2H-pyrazolo[3,4-d]pyridazin-7-amine]: the pKi in experiment [1] was 6.00 to 6.30; in experiment [2], 5.30 to 6.30.
On to `CNCC(Oc1cccc(-n2nc3c(N(C)C)nnc(C)c3c2C)c1)c1cccc(F)c1` (stereo not shown) [Example 43, 2-(3-(1-(3-fluorophenyl)-2-(methylamino)ethoxy)phenyl)-N,N,3,4-tetramethyl-2H-pyrazolo[3,4-d]pyridazin-7-amine], for which the pKi in experiment [1] is over 7.00; in experiment [2] it was 5.30 to 6.30.
